Source: patent publication US20220025003A1, “REAGENTS AND METHODS FOR CONTROLLING PROTEIN FUNCTION AND INTERACTION” (University of Washington, priority 2018, published 2022)

Key:
[1] = test system: RAS/ERK pathway in HEK293 cells; assay: Activation of NS3a-CDAR, phospho-ERK blot; type: cell-based; conditions: 10 μM drug, 60 min
Method: 18-24 hours prior to transfection, 3.0×10^5 HEK293 cells were plated onto poly-D-lysine 12 well plates. Immediately prior to transfection, media was aspirated and cells were washed with 1 mL of pre-warmed (37° C.) PBS, then serum starved with FBS-free DMEM. Following serum starvation, cells were transfected with 1 μg of FLAG-tagged NS3a-CDAR, BH3-NS3a-CDAR, or an empty pCDNA5 vector. Transfected cells were allowed to serum stave for 18-20 hours prior to drug treatment. For drug treatment, serum-free media was prepared with DMSO or 10 μM of a drug. Media was aspirated, washed once with pre-warmed DPBS, then treated with drug/DMSO media for the requisite amount of time. Media was subsequently aspirated and the cells were washed twice with 1 mL chilled PBS, then lysed with 75 μL Mod. RIPA buffer (50 mM Tris, pH 7.8, 1% IGEPAL CA-630, 150 mM NaCl, 1 mM EDTA, 2 mM Na3VO4, 30 mM NaF, Pierce Protease Inhibitor Tablet). Cleared lysates were subjected to SDS-PAGE and transferred to nitrocellulose. Blocking and antibody incubations were done in TBS with 0.1% Tween-20 (v/v) and blocking buffer (Odyssey). Primary antibodies were all purchased from Cell Signaling Technologies and were diluted as follows: Total ERK (1:2500, #9107), phosphorylated ERK (1:2500, #4370), FLAG (1:2,500, #D6W5B). Blots were washed three times in TBS with 0.1% Tween-20. Antibody binding was detected by using near-infrared-dye-conjugated secondary antibodies and visualized on the LI-COR Odyssey scanner. Blots were quantified via densitometry with Image Studio (LI-COR).

GFP, CD95 and CXCR4 = assay: 3-gene experiment (GFP, CD95, CXCR4) by RT-qPCR; type: cell-based; conditions: 10 μM danoprevir, 1 μM grazoprevir, 1 μM asunaprevir
Description: Cells were harvested on day 5 as described above for other samples to be analyzed to qPCR.

NS3a in NIH3T3 cells [2] = assay: Confocal microscopy for colocalization analysis (fixed cells); type: cell-based; conditions: 10 μM drug, 1 h
Method: A Leica SP8× system was used for confocal microscopy. […] TagBFP emission was recorded on a PMT detector, and EGFP and mCherry™ were detected by separate HyD™ detectors.
Colocalization experiments were performed in NIH3T3 cells (Flp-In-3T3, Thermo Fisher Scientific). For fixed-cell experiments, cells were plated at 3×10^4 cells/mL on sterile glass coverslides placed in 12-well culture plates. […] One day after transfection, cells were treated with drug or DMSO and fixed. Drug additions were performed by exchanging the media for DMEM+10% v/v FBS plus drug. To fix, cells were washed once with DPBS (Thermo Fisher Scientific), then incubated with 4% v/v paraformaldehyde in DPBS for 15 minutes. After washing twice with DPBS, coverslides with cells were removed from the plate and mounted on glass slides using Fluoromount-G (SouthernBiotech).
Colocalization of NS3a and DNCR1 at the plasma membrane, nucleus, mitochondria and Golgi was performed with two sets of constructs, with either NS3a or DNCR1 as the immobilized component. mCherry™-NS3a was used with Tom20-DNCR1-EGFP, DNCR1-EGFP-Giantin, and 3×NLS-DNCR1-EGFP. […] Colocalization was analyzed after 1 h of 10 μM drug or equal volume DMSO treatment.
All images were analyzed using ImageJ. […] EGFP fluorescence was quantified in the ROI over the timecourse. […] The cytoplasmic fluorescence was normalized to the value in the first and last frame for each cell. […]

NS3a in NIH3T3 cells [3] = assay: as above; type: cell-based; conditions: for DNCR2-EGFP colocalization with mitochondrial Tom20-mCherry-NS3a: 10 μM drug, 1 h
[4] = test system: mCherry reporter gene in HEK293T cells; assay: Chemically-disruptable Gal4(DBD)-NS3a(H1)/ANR-VPR transcriptional regulation; type: cell-based; conditions: 1 μM drug, 24 hours
Method: Cells were subsequently transfected with 1 μg of the Gal4 reporter plasmid (UAS-mCherry™/CMV-Gal4-NS3a(H1)-P2A-ANR-Myc-BFP-VPR-NLS) in OptiMem™. […] Supernatant was subsequently removed and the cells were re-suspended in 400 μL DPBS and analyzed on a FACS LSRII (BD Biosciences).
For Gal4/NS3a-CDP mediated transcriptional activation FACS experiments, 10,000 single cell events were collected for each of the samples run. […] The gathered FACS data were analyzed using FlowJo™ (v.10.1).

[5] = test system: GFP reporter gene in HEK293T cells; assay: dciCas9-mediated transcription; type: cell-based; conditions: 10 μM A115 and 10 μM grazoprevir
Method: For FACS analysis, 10,000 single cell events were collected for each of the samples run. […] The gathered FACS data were analyzed using FlowJo (v.10.1).

HeLa cells = assay: Widefield microscopy for signaling phenotype analysis; type: cell-based; conditions: EGFP-DNCR2-TIAM, BFP-GNCR1-LARG and NS3a-CAAX in HeLa cells
Method: Widefield images were collected in an environmental chamber with humidity control, 37° C., and 5% CO2 on a Leica DMi8 automated fluorescence microscope. Cells were plated on glass-bottomed 96-well plates (Cellvis). Plates were treated with 10 μg/mL bovine fibronectin (Sigma Aldrich) for 1 hour and washed once with PBS.
The cell line used was TRex™-HeLa (ThermoFisher Scientific), into which Lifeact-mCherry™ was stably integrated into the doxycycline-regulated Flp-In site by co-transfection of the pCDNA5-FRT/TO-Lifeact-mCherry™ vector with the Flp recombinase plasmid pOG44 (ThermoFisher Scientific) according to manufacturer's protocols. Lifeact-mCherry™ was induced by addition of 1 μg/mL doxycycline to culture media. For expression of signaling effector proteins, 1 day prior to imaging, 5×10^6 cells were transiently transfected with 10 μg DNA in a 100 μL electroporation tip using a Neon transfection system (ThermoFisher Scientific) according to manufacturer's recommendations for HeLa cells. 5×10^3 cells were plated in each well of the 96-well plate used for imaging. Cells recovered in complete DMEM with 10% FBS overnight. […] For Rac/Rho regulation, the construct PB-NS3a-CAAX-IRES-EGFP-DNCR2-TIAM-P2a-BFP-GNCR1-LARG was used, with images collected for the mCherry™ (Lifeact) and EGFP (DNCR2-TIAM) channels. […]

CXCR4 = assay: cells; conditions: Homo sapiens, read-out: EC50 (CXCR4 expression)
NS3a protease = biological target: T1, NS3a protease (Hepatitis C virus genotype 1b, UniProt Q9WMX2, A1176V/C1042I/E1056D/L1047A/L1120M/Q1112P/R1052K/V1062L/V1196I); assay: NS3a protease inhibition FRET assay; type: biochemical; conditions: ANR-GST fusion, FRET-based protease assay
T1 construct: SNAPtag-NS3a-His6; made in house; host or cells: E. coli BL21(DE3)
Method: The potency of ANR against NS3a protease was determined via a FRET assay. Titrations of ANR-GST (3-fold serial dilutions starting at 10 μM) were added to a black 96-well plate (Corning, product number 3720) containing 50 nM SNAPtag-NS3a. Reactions were incubated with NS3a-SNAPtag at room temperature for 1 hour. To each well was simultaneously added substrate M-2235 (Bachem) to a final concentration of 5 μM and reactions were monitored by measuring the fluorescence intensity every minute for 30 minutes at 22° C. on a Perkin Elmer EnVision™ fluorometer (excitation, 360 nm; emission 460 nm). Each measurement was carried out in triplicate. Slopes of the fluorescence increase were compared to a no-protease control. A nonlinear regression model was used to fit curves using GraphPad™ Prism.

NS3a* = biological target: T2, NS3a* (Hepatitis C virus genotype 1a, UniProt P27958, C1073S/C1078L/C1185S/I1043Q/I1044E/I1098T/L1039E/L1040E/L1047Q/L1179I/N1200S/P1112Q/Q1106K/T1100M/T1173A); assay: Fluorescence polarization binding assay (FB50) with FAM-ANR
T2 construct: His6-NS3a; made in house; host or cells: E. coli BL21 (DE3)
Method: (§1) The affinities of the NS3a variants for ANR were determined using a fluorescence polarization assay. Fluorescently labeled ANR (FAM-ANR, FIG. 5B) was obtained as a crude mixture from GenScript™ and purified by HPLC. Titrations of recombinant NS3a variants (3-fold serial dilutions, starting at 5 μM) were diluted in FP-Buffer (50 mM HEPES, pH 7.8, 100 mM NaCl, 5 mM DTT, 1% Glycerol, 0.01% Tween, 5% v/v DMSO). These dilutions were added to a wells containing FAM-ANR (final concentration=10 nM). FAM-ANR/NS3a solutions were incubated at room temperature in the dark for 1 hour. Fluorescence polarization was measured on a Perkin Elmer EnVision™ fluorometer (excitation, 495 nm; emission 520 nm). All measurements were carried out in black 96-well plates (Corning, product #: 3720) and run in triplicate. Anisotropy values were obtained and a nonlinear regression model was used to determine binding constants in GraphPad™ Prism.

NS3a = biological target: T3, NS3a (Hepatitis C virus genotype 1b, UniProt Q9WMX2, A1176V/E1056D/L1047A/L1120M/Q1112P/R1052K/V1062L/V1196I); assay: as above
T3 construct: Avi-His6-NS3a; the text calls the FP protein non-biotinylated) (N); made in house; host or cells: E. coli BL21 (DE3)
Method: as §1

Row | Compound | phospho-ERK levels in cells expressing NS3a-CDAR [1] | transcriptional output state in 3-gene system (GFP, CD95 and CXCR4) | Colocalization of DNCR1-EGFP and NS3a-mCherry (NS3a in NIH3T3 cells [2]) | DNCR2-EGFP colocalization with mitochondrial Tom20-mCherry-NS3a (NS3a in NIH3T3 cells [3]) | mCherry expression after drug treatment [4] | GFP expression on co-administration with A115 [5] | cell shape change (HeLa cells) | EC50 (CXCR4) | Colocalization of DNCR2-EGFP and GNCR1-BFP with NS3a-mCherry-CAAX (NS3a in NIH3T3 cells [3]; 5 μM drug) | Colocalization of NS3a-mCherry with GNCR1-BFP-CAAX or Tom20-DNCR2-EGFP (NS3a in NIH3T3 cells [3]; 5 μM drug, 15 min) | apparent IC50 against NS3a activity (NS3a protease) | affinity for NS3a* (NS3a*) | binding to NS3a (NS3a)
1 | C=C[C@@H]1C[C@]1(NC(=O)[C@@H]1C[C@@H](Oc2ncc(OC)c3ccc(Cl)cc23)CN1C(=O)[C@@H](NC(=O)OC(C)(C)C)C(C)(C)C)C(=O)NS(=O)(=O)C1CC1 [asunaprevir] | robust increase in phospho-ERK levels | no gene expression | much lower correlation | neither grazoprevir nor asunaprevir induced DNCR2-EGFP colocalization |  |  |  |  |  |  |  |  | 
2 | C=C[C@@H]1C[C@]1(NC(=O)[C@@H]1C[C@@H]2CN1C(=O)[C@H](C(C)(C)C)NC(=O)O[C@@H]1C[C@H]1CCCCCc1nc3ccc(OC)cc3nc1O2)C(=O)NS(=O)(=O)C1CC1 [grazoprevir] | robust increase in phospho-ERK levels | CXCR4 expression under control of GNCR1 | much lower correlation | neither grazoprevir nor asunaprevir induced DNCR2-EGFP colocalization | decreased mCherry™ expression to background levels | reversed | caused cell contraction | 0.16 ± 0.03 nM | GNCR1/NS3a colocalization | exclusively colocalized NS3a-mCherry™ to plasma membrane-targeted GNCR1-BFP-CAAX |  |  | 
3 | genetically-encoded peptide inhibitor of NS3a, GELDELVYLLDGPGYDPIHSD (SEQ ID NO:14); tested as ANR-GST and FAM-ANR |  |  |  |  |  |  |  |  |  |  | less than the concentration of NS3a protease used in the assay | very low affinity | binds tightly
